Data from patent US8834843B2, “Imaging method” (GE Healthcare Limited, priority 2007, dated 2014).
Like-named read-outs stand apart in the source and are kept apart here. Numbered stars: 1 amine (or outer) side, 2 acyl side, 3 side chain; on linkers, the order of the positions; unused ones are H or OH. Bridge positions count the residues as written; N and C are the ends. Side chains are listed from the residue outwards. Peptide text beside a SMILES is read from it. * marks the point of attachment. X1 = C/C(=N\O)C(C)(C)NCCC(CCNC(C)(C)/C(C)=N/O)CCN*; Glutaryl = O=C(CCCC(=O)[*:2])[*:1]; X2 = NC(=O)COCC(=O)NCCOCCOCCOCCN*

Tests used:
Type in all cases: in vivo
[1] = system: fibrogenic livers in rat BDL model; test: Liver uptake (SUV) in BDL vs sham rats at 2-28 days post-operatively; details: 1 hour after tail vein injection
Experimental: Outbred male Sprague Dawley rats (180-200 g; Charles River) were used in all bile duct ligation (BDL) and sham studies. […] For the BDL animals, the abdomen was shaved and swabbed with betadine solution followed by 5 mg/kg carprofen subcutaneously (s.c.) and 5 mg/kg bupronorphine s.c. and under Isoflurane anaesthesia a mid-line laparotomy was performed and the common bile duct located. Bile duct was double ligated, the first ligation made between the junction of the hepatic ducts and the second above the entrance of the pancreatic ducts. […] Animals were closely monitored for the duration of the experiment. […] At the appropriate time point post-injection of the test item, each animal was re-anaesthetised with isoflurane, sacrificed by cervical dislocation weighed and the weight recorded via a barcode scanning system. Each animal was dissected and the following organs and tissues were removed and counted using BASIL counter protocol 40 or manual counting: The BDL and sham animal models were set up as described in Example 3. Uptake of Compound 8 was calculated as Standard Uptake Value (SUV) as follows: [formula] • Zs=counts per second in sample • Ws=weight of sample in grams • Z1=total counts per second measured in all the samples (excluding the injection site) • W1=weight of animal in grams […]

BDL fibrogenic liver = test: Biodistribution in BDL rats with and without excess cold compound; details: rat, in vivo
Experimental: (§1) On the appropriate day post surgery BDL and sham animals were removed and put under isoflurane anaesthesia, then each animal was injected with 0.3 ml intravenously (i.v.) via tail vein (˜3MBq). At the appropriate time point post-injection of the test item, each animal was re-anaesthetised with isoflurane, sacrificed by cervical dislocation weighed and the weight recorded via a barcode scanning system. Each animal was dissected and the following organs and tissues were removed and counted using BASIL counter protocol 40 or manual counting:
(§2) The recorded activity in a whole organ (e.g., liver) was corrected for background radioactivity and for radioactive decay and the biodistribution of radioactivity calculated by reference to Formula I:
(§3) [formula] where: • A=counts per second measured in organ • B=total counts per second measured in all samples (excluding the injection site)
(§4) The percentage of injected radioactivity in the weighed tissue samples (e.g., blood) was calculated to give % i.d. in the entire tissue by reference to Formula 2:
(§5) [formula] where: • Zs=counts per second in sample • Ws=weight of sample in grams • Wb=weight of animal in grams immediately after sacrifice • B=total counts per second measured in all the samples (excluding the injection site) • F=tissue specific factor representing the mass of the tissue as a proportion of the total body weight of the animal
(§6) The biodistribution of radioactivity was investigated in 15 days post-operatively in BDL and sham-operated male Sprague Dawley rats (procedures described in Example 3) 1 hour following of intravenous injection via tail vein of ˜3 MBq of Compound 8, both before and after addition of 1:100 and 1:10,000 fold excess of cold Compound 8. At the appropriate time point post-injection of the test Item, each animal was re-anaesthetised with isoflurane, sacrificed by cervical dislocation and weighed. Each animal was dissected and organs and tissues (see Tables 5 and 6 below) were removed and counted using BASIL counter protocol 40 or manual counting.

[2] = as above; details: male, Sprague Dawley, rat, iv, total radioactivity, BDL rats, 15 days post-op, 1 hour post-injection; for dose excreted at 1 h: bile and urine
Experimental: as §1, §2, §3, §4, §5, §6

C/C(=N\O)C(C)(C)NCCC(CCNC(=O)CCCC(=O)NCCCC[C@@H]1NC(=O)CSC[C@@H](C(=O)NCCOCCOCCOCCNC(=O)COCC(N)=O)NC(=O)[C@H](Cc2ccccc2)NC(=O)[C@@H]2CSSC[C@H](NC1=O)C(=O)N[C@@H](CCCNC(=N)N)C(=O)NCC(=O)N[C@@H](CC(=O)O)C(=O)N2)CCNC(C)(C)/C(C)=N/O (some centres unmarked) [Compound 8] ({CH2CO}-K([Glutaryl-X1])CRGDCFC-X2; disulfide 2-6; thioether N-8)
Liver uptake in BDL rats (in words) [1]: specific uptake | Binding to BDL fibrogenic liver with excess cold compound (in words) (BDL fibrogenic liver): Specifically Inhibited by Cold Compound 8 | dose excreted at 1 h ([2]; 3 MBq, 10K-fold excess cold Compound 8): 41.6% | dose excreted at 1 h ([2]; 3 MBq, 100-fold excess cold Compound 8): 38.3% | dose excreted at 1 h ([2]; 3 MBq, no excess): 41% | tissue uptake dose at 1 h ([2]; blood, 10K-fold excess cold Compound 8, read-out: Activity in Blood, Mean): 1.6 %ID | tissue uptake dose at 1 h ([2]; blood, 100-fold excess cold Compound 8, read-out: Activity in Blood, Mean): 1.61 %ID | tissue uptake dose at 1 h ([2]; blood, no excess, read-out: Activity in Blood, Mean): 1.47 %ID | tissue uptake dose at 1 h ([2]; bone, 10K-fold excess cold Compound 8, read-out: Activity in Bone, Mean): 3.18 %ID | tissue uptake dose at 1 h ([2]; bone, 100-fold excess cold Compound 8, read-out: Activity in Bone, Mean): 2.97 %ID | tissue uptake dose at 1 h ([2]; bone, no excess, read-out: Activity in Bone, Mean): 3.02 %ID | tissue uptake dose at 1 h ([2]; carcass, 10K-fold excess cold Compound 8, read-out: Activity in Carcass, Mean): 6.14 %ID | tissue uptake dose at 1 h ([2]; carcass, 100-fold excess cold Compound 8, read-out: Activity in Carcass, Mean): 6.47 %ID | tissue uptake dose at 1 h ([2]; carcass, no excess, read-out: Activity in Carcass, Mean): 4.36 %ID | tissue uptake dose at 1 h ([2]; heart, 10K-fold excess cold Compound 8, read-out: Activity in Heart, Mean): 0.14 %ID | tissue uptake dose at 1 h ([2]; heart, 100-fold excess cold Compound 8, read-out: Activity in Heart, Mean): 0.13 %ID | tissue uptake dose at 1 h ([2]; heart, no excess, read-out: Activity in Heart, Mean): 0.13 %ID | tissue uptake dose at 1 h ([2]; injection site, 10K-fold excess cold Compound 8, read-out: Activity in Injection Site, Mean): 1.68 %ID | tissue uptake dose at 1 h ([2]; injection site, 100-fold excess cold Compound 8, read-out: Activity in Injection Site, Mean): 1.75 %ID | tissue uptake dose at 1 h ([2]; injection site, no excess, read-out: Activity in Injection Site, Mean): 1.32 %ID | tissue uptake dose at 1 h ([2]; kidneys, 3 MBq, 10K-fold excess cold Compound 8, read-out: Activity in Kidneys, Mean): 3.61 %ID | tissue uptake dose at 1 h ([2]; kidneys, 3 MBq, 100-fold excess cold Compound 8, read-out: Activity in Kidneys, Mean): 4.2 %ID | tissue uptake dose at 1 h ([2]; kidneys, no excess, read-out: Activity in Kidneys, Mean): 3.78 %ID | tissue uptake dose at 1 h ([2]; liver, 10K-fold excess cold Compound 8, read-out: Activity in Liver, Mean): 9.81 %ID | tissue uptake dose at 1 h ([2]; liver, 100-fold excess cold Compound 8, read-out: Activity in Liver, Mean): 16.1 %ID | tissue uptake dose at 1 h ([2]; liver, no excess, read-out: Activity in Liver, Mean): 12.7 %ID | tissue uptake dose at 1 h ([2]; lung, 10K-fold excess cold Compound 8, read-out: Activity in Lung, Mean): 0.5 %ID | tissue uptake dose at 1 h ([2]; lung, 100-fold excess cold Compound 8, read-out: Activity in Lung, Mean): 0.5 %ID | tissue uptake dose at 1 h ([2]; lung, no excess, read-out: Activity in Lung, Mean): 0.43 %ID | tissue uptake dose at 1 h ([2]; muscle, 10K-fold excess cold Compound 8, read-out: Activity in Muscle, Mean): 9.61 %ID | tissue uptake dose at 1 h ([2]; muscle, 100-fold excess cold Compound 8, read-out: Activity in Muscle, Mean): 8.76 %ID | tissue uptake dose at 1 h ([2]; muscle, no excess, read-out: Activity in Muscle, Mean): 10.8 %ID | tissue uptake dose at 1 h ([2]; skin, 10K-fold excess cold Compound 8, read-out: Activity in Skin, Mean): 13 %ID | tissue uptake dose at 1 h ([2]; skin, 100-fold excess cold Compound 8, read-out: Activity in Skin, Mean): 12 %ID | tissue uptake dose at 1 h ([2]; skin, no excess, read-out: Activity in Skin, Mean): 12.6 %ID | tissue uptake dose at 1 h ([2]; small and large intestine, 10K-fold excess cold Compound 8, read-out: Activity in Small & Large Intestine, Mean): 8.58 %ID | tissue uptake dose at 1 h ([2]; small and large intestine, 100-fold excess cold Compound 8, read-out: Activity in Small & Large Intestine, Mean): 7.41 %ID | tissue uptake dose at 1 h ([2]; small and large intestine, no excess, read-out: Activity in Small & Large Intestine, Mean): 8.32 %ID | tissue uptake dose at 1 h ([2]; spleen, 10K-fold excess cold Compound 8, read-out: Activity in Spleen, Mean): 0.52 %ID | tissue uptake dose at 1 h ([2]; spleen, 100-fold excess cold Compound 8, read-out: Activity in Spleen, Mean): 0.57 %ID | tissue uptake dose at 1 h ([2]; spleen, no excess, read-out: Activity in Spleen, Mean): 0.51 %ID | tissue uptake dose at 1 h ([2]; stomach, 10K-fold excess cold Compound 8, read-out: Activity in Stomach, Mean): 1.69 %ID | tissue uptake dose at 1 h ([2]; stomach, 100-fold excess cold Compound 8, read-out: Activity in Stomach, Mean): 0.96 %ID | tissue uptake dose at 1 h ([2]; stomach, no excess, read-out: Activity in Stomach, Mean): 0.89 %ID | tissue uptake dose at 1 h ([2]; thyroid, 10K-fold excess cold Compound 8, read-out: Activity in Thyroid, Mean): 0.06 %ID | tissue uptake dose at 1 h ([2]; thyroid, 100-fold excess cold Compound 8, read-out: Activity in Thyroid, Mean): 0.04 %ID | tissue uptake dose at 1 h ([2]; thyroid, no excess, read-out: Activity in Thyroid, Mean): 0.04 %ID
